Marks after values point to notes of the source that are not given here.
Legend:
[1] = test system: NF-κB; test: NF-κB DNA binding activity (EMSA); type: cell-based, rat; details: BSp73AS, 6 hours; polyphenols 100 μM, MG-132 20 μM
Procedure: In order to determine the role of activated NF-κB in the regulation of apoptosis caused by the polyphenolic compound, the following assay was conducted. BSp73AS cells were cultured for 6 hours and Mia PACA-2 cells were cultured in the absence of serum or growth factors for 24 hours in the absence (controls) or presence of rutin, quercetin, trans-resveratrol, or genistein, each at 100 μM and 20 μM proteosome inhibitor MG-132. Nuclear proteins were isolated and analyzed for NF-κB DNA binding activity with electrophoretic mobility shift assay (EMSA). Specifically, aliquots of nuclear extracts with equal amount of protein, about 2 to about 10 μg, were mixed in 20 μl reactions with a buffer comprising 10 mM HEPES (pH 7.6), 50 mM KCl, 0.1 mM EDTA, 1 mM DTT, 10% (vol/vol) glycerol and 3 μg poly[d (I-C)]. After aliquots were equilibrated on ice for 5 minutes, binding reactions were stared by addition of 20-60,000 counts/min (20 fM) of ^32P-labeled DNA probes and allowed to proceed for 25-30 minutes at room temperature or up to 1 hour on ice. The oligonucleotide probe containing the κB binding motif (underlined) was annealed to the complementary oligonucleotide with a 5′-G overhang and end-labeled using Klenow DNA polymerase I. The samples were electrophoresed at room temperature in 0.5×TBE buffer (1×TBE 89 mM Tris base, 89 mM boric acid and 2 mM EDTA) on nondenaturing 4.5% polyacrylamide gel at 200 V. Gels were dried and directly analyzed in the PhosphorImager (Molecular Dynamics, Sunnyvale, Calif.). The experiment was repeated twice.

[2] = test system: Mia PACA-2; test: Pancreatic cancer growth assay in nude mouse model; type: in vivo
Procedure: To determine the effect of a polyphenolic compound on pancreatic cancer cell growth, the following assay using a nude mouse model was conducted. Specifically, the effect of quercetin was tested in a nude mouse model of pancreatic cancer using the highly malignant pancreatic cancer cell line, Mia PACA-2.
Tumor induction in nude mice was performed as described by Hotz HC, et al. (2001) Pancreas 22:113-121, which is herein incorporated by reference. For subcutaneous tumor formation, 1×10^7 Mia PACA-2 tumor cells were subcutaneously injected in the medio-dorsal region of a nude mouse. After 4 weeks a small tumor fragment, about 1 mm in diameter, was removed from the subcutaneous tumor and transplanted into the pancreatic tail of mice of two study groups. Ten days after tumor transplantation, treatment with or without quercetin was initiated. The treated animals received daily intraperitoneal injections of 1.3 mg quercetin dissolved in DMSO; the control group received DMSO only by intraperitoneal injection. The animals were sacrificed once clinical tumor signs including severe cachexia ascites with abdominal distension or heavy tumor burden, larger than 1.5 cm, became apparent. Tumor volume was calculated as described by Hotz H C, et al. (2001) as 0.5×length×width×depth. Metastatic tumor spread was determined macroscopically at autopsy in all thoracic, abdominal, retroperitoneal and pelvic organs. All macroscopic suspicious lesions were further confirmed as tumor dissemination by microscopic analysis. Each value in the metastatic score represented a different organ of metastatic tumor spread.

[3] = test system: Mia PACA-2 cells; test: Intracellular ROS (H2O2) by flow cytometry of DCF-labeled cells; type: cell-based, human; details: Mia PACA-2, 72 hours, serum or IGF-1; trans-resveratrol 100 μM, genistein 100 μM, DPI 15 μM, tiron 10 mM
Procedure: To determine the effect of serum in cancer cells, the following assay was conducted. Mia PACA-2 pancreatic cancer cells were cultured for 72 hours in the absence and presence of serum (15% FBS) or 100 ng/ml insulin growth factor-1 (IGF-1). Dichloroflyorescein diocetate (DCF-DA) was used to label the cells. Intracellular H2O2 was measured by flow cytometry of DCF-labeled cells. Intracellular ROS was measured using oxidation-sensitive cell-permeable fluorescent probe, dichlorofluorescein diacetate (DCF-DA) to measure H2O2. See Royall J A, and Ischiropoulos H. (1993) Arch. Biochem. Biophys. 302:348-355. To measure ROS, cells were collected after incubation, washed with PBS, and incubated for 15 minutes with […] DCF-DA. Samples were analyzed by flow cytometry. The amount of DCF-DA fluorescence correlated with the amount of ROS in the cells To determine the effects of serum, IGF-1, polyphenols and inhibitors of ROS on ROS production in cancer cells, the following assay was conducted. Mia PACA-2 cells were cultured for 72 hours in the presence of serum or IGF-1 with or without antioxidants, intracellular superoxide scavenger tiron (10 mM) or NADPH oxidase inhibitor, diphenylene iodonium (DPI, 15 μM) and trans-resveratrol (100 μM), genistein (100 μM), or a combination of polyphenolic compounds and antioxidants. Intracellular H2O2 was measured by flow cytometry of DCF-labeled cells. Mia PACA-2 cells and BSp73AS cells were cultured in Dulbecco's Modified Eagle's Medium supplemented with 10% heat inactivated FBS, penicillin G (100 U/ml) and streptomycin ([…]) in a humidified atmosphere comprising 5% (v/v) CO2. When the cells were 90% confluent they were detached, washed with alternating centrifugation and resuspension, plated and incubated in the same media with or without FBS or IGF-1 and with or without a given polyphenolic compound and with or without a given ROS inhibitor.

[4] = nude mice with Mia PACA-2 tumor in pancreatic tail, daily i.p. 1.3 mg quercetin, means ± SE, n=8

Row | Structure (SMILES) | NF-κB activation (DNA binding) [1] | Number of metastatic sites (organs with metastatic lesions) [2, 4] | Tumor volume, cm^3 [2, 4] | Number of metastatic sites (organs with metastatic lesions) ([2]; nude mice with Mia PACA-2 tumor in pancreatic tail, daily i.p. 1.3 mg quercetin, means ± SE, n=8, listed as Quercetin) | Survival ([2]; nude mice with Mia PACA-2 tumor transplanted into pancreatic tail, daily intraperitoneal 1.3 mg quercetin in DMSO, means ± SE, n=8, days after transplantation until animal appeared ill from abdominal distension) [days] | growth of pancreatic cancer in a nude mouse model [2] | ROS production (intracellular H2O2, DCF fluorescence) [3]
1 | O=c1c(O)c(-c2ccc(O)c(O)c2)oc2cc(O)cc(O)c12 [quercetin] | inhibit NF-κB activation | 0.6 | 1.56 ± 0.27* cm^3 | 0.62 ± 0.26 | 75.00 ± 2.50 | inhibition of growth | 
2 | Oc1ccc(/C=C/c2cc(O)cc(O)c2)cc1 [trans-resveratrol] | inhibit NF-κB activation |  |  |  |  |  | small increase in ROS production
3 | O=c1c(-c2ccc(O)cc2)coc2cc(O)cc(O)c12 [genistein] |  |  |  |  |  | inhibition of growth | small increase in ROS production
